Reference: patent publication EP2805705B1, “Packaging with one or more administration units comprising a sodium salt of (R)-3-[6-amino-pyridin-3-yl]-2-(1-cyclohexyl-1 H-imidazol-4-yl)-propionic acid” (IP Gesellschaft für Management mbH, priority 2013, dated 2014)

What was measured:
[1] = Chiral stability on storage as a solid at 40 °C and 75 % RH (chiral HPLC); format: physicochemical
Protocol: Example 8: Chiral stability: Representative samples of the crystalline sodium salt of (R)-3-[6-amino-pyridin-3-yl]-2-(1-cyclohexyl-1 H-imidazol-4-yl)-propionic acid sodium salt dihydrate as prepared in Example 3 were stored as a solid under the conditions (A) and (B): (A) 40 °C and 75 % RH 2 weeks; (B) 40 °C and 75 % RH 4 weeks: Results are shown in the following table:
Under the storage conditions the samples remain stable. […] The purity was determined by chiral HPLC on a HPLC system containing a Quaternary HPLC pump (e.g. HP 1100), an auto sampler, an UV absorbance detector (e.g. DAD Agilent Technologies or other adequate HPLC-System) and a computer data acquisition system with suitable software (e.g. Dionex-Chromeleon). A Zorbax SB_CN (4.6 x 100 mm, 3.5 µlτ ? ), column was used as stationary phase and two mobile phases A (975 mL water, 25 mL methanol, 1 mL perchloric acid) and B (975 mL methanol, 25 mL water) were used as mobile phases. The flow rate was set to a value of 1.0 mL/minute and the oven temperature was set to 15°C. Detection was performed by absorbance of the compounds at 236 nm (UV) (bandwidth: 4 nm) and reference wavelength was set to 450 nm (bandwidth: 50 nm). Typical total run times were in the range of about 10 minutes. For sample preparation 20 mg of the substance were accurately weighed into a 10 ml volumetric flask and dissolved and diluted to volume with solvent (acetonitrile/water 90:10 VN). Afterwards 1 ml of this solution was transferred to a 10 mL volumetric flask and then diluted to volume with water. For the HPLC analysis 5 µl of the sample were injected into the system. Gradient used: 0 min (time elapsed) 0% mobile phase B, 1 min 0% mobile phase B, 4 min 53% mobile phase B, 6 min 95% mobile phase B, 7 min 95% mobile phase B, 7.5 min 0% mobile phase B and after 10 min 0% mobile phase B. Enanatiomeric excess was determined by chiral HPLC on a HPLC system containing a Quaternary HPLC pump (e.g. HP 1100), an auto sampler, an UV absorbance detector (e.g. DAD Agilent Technologies or other adequate HPLC-System) and a computer data acquisition system with suitable software (e.g. Dionex-Chromeleon). A Chirobiotic R, Supelco (Astec) (4.6 x 250mm; 5µηη) column was used as stationary phase and a solution of 800 mL water, 1200 mL acetonitrile and 1.0 g ammoniumacetate was used as mobile phase. The flow rate was set to a value of 1.5 mL/minute and the oven temperature was set to 45°C. Detection was performed by absorbance of the compounds at 236 nm (UV) (bandwidth: 8 nm) and reference wavelength was set to 450 nm (bandwidth: 50 nm). Typical total run times were in the range of about 15 minutes. For sample preparation 50 mg of the substance were accurately weighed into a 10 mL volumetric flask and dissolved and diluted to volume with solvent (acetonitrile/water 50:50). For the HPLC analysis 5 µí of the sample were injected into the system. Gradient used: Isograt (15 minutes 100% mobile phase A).
Example 10: Chiral stability; Comparison Experiment: (R)-3-[6-amino-pyridin-3-yl]-2-(1-cyclohexyl-1 H-imidazol-4-yl)-propionic acid as prepared in Example 1 was used for the measurement. Representative samples of the compound (R)-3-[6-amino-pyridin-3-yl]-2-(1-cyclohexyl-1 H-imidazol-4-yl)-propionic acid as prepared in Example 1 were stored as a solid under the conditions (A) and (B) as defined in Example 8.

[2] = Dynamic vapor sorption (DVS), SPS11-10µ, one cycle at 25 °C; format: physicochemical; conditions: DVS isotherm at 25 °C
Protocol: (§1) Example 7: Dynamic vapor sorption (DVS) of (R)-3-[6-amino-pyridin-3-yl]-2-(1-cyclohexyl-1 H-imidazol-4-yl)-propionic acid sodium salt monohydrate: Moisture sorption/desorption isotherms were recorded on a SPS11-10µ from Projekt Messtechnik (Ulm, Germany). One cycle was run at 25 °C, in which the sample was first stepwise decreased to 0% RH and then the relative humidity was stepwise increased from 0 to 95% and the weight of the sample was measured. Typical total measurement times for both cycles were about 20 to 30 hours. The measured data for the (R)-3-[6-amino-pyridin-3-yl]-2-(1-cyclohexyl-1 H-imidazol-4-yl)-propionic acid sodium salt monohydrate as prepared in Examples 2 or 3 are shown in the following table: DVS Isotherm at 25 °C:
(§2) Example 12: DVS, Comparison Experiment: (R)-3-[6-amino-pyridin-3-yl]-2-(1-cyclohexyl-1 H-imidazol-4-yl)-propionic acid as prepared in Example 1 was used for the measurement. The measurement was performed as disclosed in Example 7 with (R)-3-[6-amino-pyridin-3-yl]-2-(1-cyclohexyl-1 H-imidazol-4-yl)-propionic acid (free acid, amorphous) and the received data are shown in the following table: DVS Isotherm at 25 °C
as §1, with “(DVS):” for “(DVS) of (R)-3-[6-amino-pyridin-3-yl]-2-(1-cyclohexyl-1 H-imidazol-4-yl)-propionic acid sodium salt monohydrate:”, “Room humidity (RH)” for “RH”, “dihydrate” for “monohydrate”, “Example” for “Examples 2 or”, “isotherm” for “Isotherm”, “25°C:” for “25 °C:”
as §2, with “9:” for “12:”

[3] = format: physicochemical; conditions: At 90% RH, 25°C
Protocol: Said crystal Form I according to the invention (samples obtained according to the process of scheme 1) was characterized by several physical methods such as X-ray Powder Diffraction, Differential Scanning Calorimetry, Thenno-Gravimetric Analysis, Water-Activity isotherm measurement, as shown below. X-Ray Powder Diffraction (XRPD): XRPD experiments are carried out on a Braker AXS D8 powder diffractometer using the Bragg-Brentano parafocusing geometry. A thin layer of the product is deposited on a single-crystal silicon wafer, cut out according to Si (510) crystallographic orientation that, by systematic extinction, impedes any Bragg reflection. […] Diagrams are recorded in the following conditions: a 1.5 to 40.0° scan in angle 20, 10 and 100 seconds counting time per degree in 20, according to the amount of powder to be analyzed, and ambient conditions of pressure, temperature and relative humidity. […] Between 1.5 and 5 mg of the product to be analyzed is placed in a semi-open aluminum sample pan. An endo thermic peak is recorded (onset around 104°C). […] A controlled relative humidity is generated by mixing different proportions of dry and water saturated carrier gas streams (monitored by mass flow conti llers). […] From the complete moisture sorption and desorption profile an isotherm is calculated using the DVS Advanced Analysis Suite v3.6. […]

Structure (SMILES) | Enantiomeric excess ([1]; Storage condition (A) 40 °C and 75 % RH 2 weeks, stored as a solid) [%] | Enantiomeric excess ([1]; at the beginning) [%] | Change In Mass (%) Desorption ([2]; Target RH 0.4 %) [%] | Change In Mass (%) Sorption ([2]; Target RH 10.0 %) [%] | Change In Mass (%) Desorption ([2]; Target RH 10.1 %) [%] | Change In Mass (%) Desorption ([2]; Target RH 20.0 %) [%] | Change In Mass (%) Sorption ([2]; Target RH 20.0 %) [%] | Change In Mass (%) Sorption ([2]; Target RH 30.0 %) [%] | Change In Mass (%) Desorption ([2]; Target RH 30.1 %) [%] | Change In Mass (%) Sorption ([2]; Target RH 40.1 %) [%] | Change In Mass (%) Sorption ([2]; Target RH 50.0 %) [%] | Change In Mass (%) Sorption ([2]; Target RH 60.1 %) [%] | Change In Mass (%) Sorption ([2]; Target RH 70.0 %) [%] | Change In Mass (%) Sorption ([2]; Target RH 75.0 %) [%] | Change In Mass (%) Sorption ([2]; Target RH 80.1 %) [%] | Change In Mass (%) Sorption ([2]; Target RH 85.1 %) [%] | Change In Mass (%) Sorption ([2]; Target RH 89.9 %) [%] | Change In Mass (%) Sorption ([2]; Target RH 95.0 %) [%] | total water uptake [3]
Nc1ccc(C[C@@H](C(=O)O)c2cn(C3CCCCC3)cn2)cn1 [(R)-3-[6-amino-pyridin-3-yl]-2-(1-cyclohexyl-1 H-imidazol-4-yl)-propionic acid] | 94.9 | 98.2 | -1.6 | -0.5 | 0.3 | 1.1 | 0.5 | 1.9 | 1.7 | 3.9 | 6.6 | 9.6 | 13.4 | 15.0 | 16.9 | 20.1 | 25.1 | 32.3 | 
COc1ccc(/C=C\c2cc(OC)c(OC)c(OC)c2)cc1NC(=O)[C@@H](N)CO [crystal Form I, (2S)-2-amino-3-hydroxy-N-[2-methoxy-2-[(1Z)-2-(3,4,5-trimethoxyphenyl)ethenyl]phenyl] propanamide] |  |  |  |  |  |  |  |  |  |  |  |  |  |  |  |  |  |  | less than 0.15 % (w/w)
